# According to patent US4599352A, “Antineoplastic platinum (IV) complexes and compositions” (priority 1984, dated 1986):
# Key:
# [1] = test system: IP-Implanted L1210 Leukemia; assay: Dose-response against IP-implanted L1210 leukemia, IP treatment Days 1, 5 and 9, 30-day test (Table 2); format: in vivo, CD2Fl male mice; details: for Optimal dose (dose producing best therapeutic response): day 1, 5 and 9 schedule
# Method: (§1) Biological properties of the compounds of the present invention were determined following the protocol described in Cancer Chemotherapy Reports, Vol. 3, No. 3, 1972 which report is incorporated herein by reference.
# (§2) This experiment (A8-00005 3LE31) was conducted at the Southern Research Institute, Birmingham, Ala. under the supervision of Dr. Daniel Griswold. The protocols were the same as those published previously (Geran et al., Cancer Chemotherapy Reports 3: No. 2, 1972 [Attachment 11]). 10^5 cells were implanted intraperitoneally in CD2Fl male mice on Day 0. Drug treatments were given intraperitoneally as single injections at the doses indicated on Days 1, 5 and 9 after tumor implantation. The diluent was saline except for NSC-271674 where 5% sodium bicarbonate was used. All drugs were prepared fresh on the day of injection, and all were administered in solution. Median survival times for both control and drug-treated mice were determined and expressed as a percentage (% T/C). Body weights were determined on Day 5 and expressed as a weight difference (body weight of the drug-treated animals minus that of the control animals in grams) (T-C). The diluent control animals lived a median of 8.4 days and gained 1.9 grams by Day 5 in this experiment. All animals, including Day 30 survivors, were used in the calculation of median survival times. The log10 change in tumor burden refers to the net log change in viable tumor cell population at the end of therapy (Rx) as compared to the start of therapy; e.g., a […] means that there was a […] and a 3 log change means there was a 1000-fold increase in tumor burden at the end of therapy. The tumor burden at the start of therapy was about 6.1×10^5 cells in this experiment.
# [2] = test system: IP L1210; assay: Activity against IP-implanted L1210 leukemia sensitive to cisplatin, 60 day test (Table 4); format: in vivo, Female CD2Fl mice
# Method: as §1
# (§3) Other known mechanisms of resistance for other classes of agents, such as gene amplification or target enzyme change or amplication, also need to be explored. The experiments summarized in Table 3 were conducted at the same time against both sublines using the same drug preparations. […] These experiments were repeated in a second laboratory as documented in Table 4. However, in these experiments the animals were held for 60 rather than 30 days to evaluate whether or not long-term survivors are produced after drug treatment in a more challenging setting.
# as §2
# (§4) These experiments (23-00081 3LE31 and 23-00003 3DP3l) were conducted concurrently at the Mason Research Institute, Worcester, MA under the supervision of Dr. William Cobb. See Table 4 for experimental details. The diluent control animals bearing L1210 leukemia lived a median of 8.3 days and gained 1.6 grams by Day 5. […] Female CD2Fl mice were used for these experiments.
# [3] = test system: IP L1210/Cisplatin; assay: Activity against IP-implanted L1210/Cisplatin leukemia resistant to cisplatin, 60 day test (Table 4); format: in vivo, Female CD2Fl mice
# Method: as §1
# as §3, with “setting. […]” for “setting.”
# as §4
# [4] = test system: SC Implanted L1210 Leukemia; assay: Activity against SC implanted L1210 leukemia following intravenous administration, once daily Days 1-5 (Table 5); format: in vivo, CD2Fl male mice; details: for Optimal Dose: IV once daily Days 1-5
# Method: as §1
# In another type of experiment the same platinum complexes were directly compared against the SC implanted L1210 following intravenous administration (Table 5).
# This experiment (A8-00004 3LE32) was conducted at the Southern Research Institute, Birmingham, Ala. under the supervision of Dr. Daniel Griswold. The protocols were the same as those published previously (Attachment 11). 10^6 cells were implanted subcutaneously in CD2Fl male mice on Day 0. Drug treatments were given intravenously once daily at the doses indicated on Days 1-5 after tumor implantation. The dosage range tested included the highest and lowest doses indicated in the Table as well as intermediate values which were determined by multiplying each dose in turn by 0.5 starting with the highest dose. The diluent was saline except for NSC-271674 for which 5% sodium bicarbonate was used. All drugs were prepared fresh on the day of injection, and all were administered in solution. Median survival times for both control and drug-treated mice were determined and expressed as a percentage (% T/C). Body weights were determined on Day 5 and expressed as a weight difference (body weight of the drug-treated animals minus that of the control animals in grams) (T-C).
# [5] = test system: IP L1210 leukemia; assay: Mouse optimal (highest tolerated) dose, IP L1210 leukemia, Days 1, 5 and 9 schedule (Table 7); format: in vivo
# Excerpt: *IP L1210 leukemia, Days 1, 5 and 9 schedule. Highest tolerated dose in a
# least 2 of 3 experiments (i.e,. animal weight difference (testcontrol)
molecule,measurement,setting,value
"[Cl][Pt]1([Cl])([Cl])([Cl])[NH]C2CCCCC2[NH]1 (stereo not drawn) [trans (d, l), (d,l)-Tetrachloro-trans-1,2-cyclohexanediamine platinum (IV)]",30-Day Survivors/Total,[1]; 1 mg/kg/dose IP,0/6
same,Approx. Log10 Change in Tumor Burden at End of Rx,[1]; 1 mg/kg/dose IP,~2.9 log10
same,Body Weight Difference,[1]; 1 mg/kg/dose IP,-0.5 Grams
same,Median % T/C,[1]; 1 mg/kg/dose IP,122%
same,30-Day Survivors/Total,[1]; 2 mg/kg/dose IP,0/6
same,Approx. Log10 Change in Tumor Burden at End of Rx,[1]; 2 mg/kg/dose IP,~2.5 log10
same,Body Weight Difference,[1]; 2 mg/kg/dose IP,-1.5 Grams
same,Median % T/C,[1]; 2 mg/kg/dose IP,146%
same,30-Day Survivors/Total,[1]; 4 mg/kg/dose IP,1/6
same,Approx. Log10 Change in Tumor Burden at End of Rx,[1]; 4 mg/kg/dose IP,~-0.5 log10
same,Body Weight Difference,[1]; 4 mg/kg/dose IP,-1.5 Grams
same,Median % T/C,[1]; 4 mg/kg/dose IP,202%
same,30-Day Survivors/Total,[1]; 8 mg/kg/dose IP,4/6
same,Approx. Log10 Change in Tumor Burden at End of Rx,[1]; 8 mg/kg/dose IP,~-5.7 log10
same,Body Weight Difference,[1]; 8 mg/kg/dose IP,-1.2 Grams
same,Median % T/C,[1]; 8 mg/kg/dose IP,357%
same,Body Weight Difference,"[1]; 8 mg/kg/dose IP, listed as trans dl",less than -4 Grams
same,30-Day Survivors/Total,[1]; 16 mg/kg/dose IP,1/6
same,Approx. Log10 Change in Tumor Burden at End of Rx,[1]; 16 mg/kg/dose IP,~2.6 log10
same,Body Weight Difference,[1]; 16 mg/kg/dose IP,-4.6 Grams
same,Median % T/C,[1]; 16 mg/kg/dose IP,142%
same,Optimal dose (dose producing best therapeutic response),[1],8 mg/kg/injection
same,60 Day Survivors/Total,[2]; 1 mg/kg/dose,0/10
same,Body Weight Difference,[2]; 1 mg/kg/dose,-0.8 Grams
same,Median % T/C,[2]; 1 mg/kg/dose,144%
same,60 Day Survivors/Total,[2]; 2 mg/kg/dose,0/10
same,Body Weight Difference,[2]; 2 mg/kg/dose,-1.2 Grams
same,Median % T/C,[2]; 2 mg/kg/dose,180%
same,60 Day Survivors/Total,[2]; 4 mg/kg/dose,0/10
same,Body Weight Difference,[2]; 4 mg/kg/dose,-1.5 Grams
same,Median % T/C,[2]; 4 mg/kg/dose,274%
same,60 Day Survivors/Total,[2]; 8 mg/kg/dose,3/10
same,Body Weight Difference,[2]; 8 mg/kg/dose,-3.2 Grams
same,Median % T/C,[2]; 8 mg/kg/dose,178%
same,60 Day Survivors/Total,[2]; 16 mg/kg/dose,0/10
same,Body Weight Difference,[2]; 16 mg/kg/dose,-5.9 Grams
same,Median % T/C,[2]; 16 mg/kg/dose,89%
same,60 Day Survivors/Total,[3]; 1 mg/kg/dose,0/10
same,Body Weight Difference,[3]; 1 mg/kg/dose,-0.6 Grams
same,Median % T/C,[3]; 1 mg/kg/dose,129%
same,60 Day Survivors/Total,[3]; 2 mg/kg/dose,1/10
same,Body Weight Difference,[3]; 2 mg/kg/dose,-0.8 Grams
same,Median % T/C,[3]; 2 mg/kg/dose,139%
same,60 Day Survivors/Total,[3]; 4 mg/kg/dose,4/10
same,Body Weight Difference,[3]; 4 mg/kg/dose,-1.2 Grams
same,Median % T/C,[3]; 4 mg/kg/dose,451%
same,60 Day Survivors/Total,[3]; 8 mg/kg/dose,0/10
same,Body Weight Difference,[3]; 8 mg/kg/dose,-4.0 Grams
same,Median % T/C,[3]; 8 mg/kg/dose,236%
same,60 Day Survivors/Total,[3]; 16 mg/kg/dose,0/10
same,Body Weight Difference,[3]; 16 mg/kg/dose,-6.3 Grams
same,Median % T/C,[3]; 16 mg/kg/dose,Toxic
same,Optimal Dose,[4],2.5 mg/kg/inj
same,Mouse Optimal Dose (highest tolerated dose in at least 2 of 3 experiments),[5],8 mg/kg
"Tetrachloro-cis-1,2-cyclohexanediamine platinum (IV)",30-Day Survivors/Total,[1]; 1 mg/kg/dose IP,0/6
same,Approx. Log10 Change in Tumor Burden at End of Rx,[1]; 1 mg/kg/dose IP,~2.8 log10
same,Body Weight Difference,[1]; 1 mg/kg/dose IP,-0.8 Grams
same,Median % T/C,[1]; 1 mg/kg/dose IP,128%
same,30-Day Survivors/Total,[1]; 2 mg/kg/dose IP,0/6
same,Approx. Log10 Change in Tumor Burden at End of Rx,[1]; 2 mg/kg/dose IP,~2.6 log10
same,Body Weight Difference,[1]; 2 mg/kg/dose IP,-1.3 Grams
same,Median % T/C,[1]; 2 mg/kg/dose IP,140%
same,30-Day Survivors/Total,[1]; 4 mg/kg/dose IP,0/6
same,Approx. Log10 Change in Tumor Burden at End of Rx,[1]; 4 mg/kg/dose IP,~2.4 log10
same,Body Weight Difference,[1]; 4 mg/kg/dose IP,-1.1 Grams
same,Median % T/C,[1]; 4 mg/kg/dose IP,152%
same,30-Day Survivors/Total,[1]; 8 mg/kg/dose IP,0/6
same,Approx. Log10 Change in Tumor Burden at End of Rx,[1]; 8 mg/kg/dose IP,~-0.7 log10
same,Body Weight Difference,[1]; 8 mg/kg/dose IP,-1.8 Grams
same,Median % T/C,[1]; 8 mg/kg/dose IP,205%
same,30-Day Survivors/Total,[1]; 16 mg/kg/dose IP,2/6
same,Approx. Log10 Change in Tumor Burden at End of Rx,[1]; 16 mg/kg/dose IP,~-5.7 log10
same,Body Weight Difference,[1]; 16 mg/kg/dose IP,-3.6 Grams
same,Median % T/C,[1]; 16 mg/kg/dose IP,333%
same,Body Weight Difference,"[1]; 16 mg/kg/dose IP, listed as cis",less than -4 Grams
same,Optimal dose (dose producing best therapeutic response),[1],16 mg/kg/injection
same,60 Day Survivors/Total,[2]; 2 mg/kg/dose,0/10
same,Body Weight Difference,[2]; 2 mg/kg/dose,-0.9 Grams
same,Median % T/C,[2]; 2 mg/kg/dose,143%
same,60 Day Survivors/Total,[2]; 4 mg/kg/dose,2/10
same,Body Weight Difference,[2]; 4 mg/kg/dose,-0.9 Grams
same,Median % T/C,[2]; 4 mg/kg/dose,250%
same,60 Day Survivors/Total,[2]; 8 mg/kg/dose,2/10
same,Median % T/C,[2]; 8 mg/kg/dose,313%
same,60 Day Survivors/Total,[2]; 16 mg/kg/dose,0/10
same,Body Weight Difference,[2]; 16 mg/kg/dose,-5.6 Grams
same,Median % T/C,[2]; 16 mg/kg/dose,98%
same,60 Day Survivors/Total,[2]; 32 mg/kg/dose,0/10
same,Body Weight Difference,[2]; 32 mg/kg/dose,-5.6 Grams
same,Median % T/C,[2]; 32 mg/kg/dose,Toxic
same,60 Day Survivors/Total,[3]; 2 mg/kg/dose,0/10
same,Body Weight Difference,[3]; 2 mg/kg/dose,-0.3 Grams
same,Median % T/C,[3]; 2 mg/kg/dose,121%
same,60 Day Survivors/Total,[3]; 4 mg/kg/dose,0/10
same,Body Weight Difference,[3]; 4 mg/kg/dose,0.0 Grams
same,Median % T/C,[3]; 4 mg/kg/dose,130%
same,60 Day Survivors/Total,[3]; 8 mg/kg/dose,1/10
same,Body Weight Difference,[3]; 8 mg/kg/dose,-2.7 Grams
same,Median % T/C,[3]; 8 mg/kg/dose,191%
same,60 Day Survivors/Total,[3]; 16 mg/kg/dose,0/10
same,Body Weight Difference,[3]; 16 mg/kg/dose,-5.4 Grams
same,Median % T/C,[3]; 16 mg/kg/dose,Toxic
same,60 Day Survivors/Total,[3]; 32 mg/kg/dose,0/10
same,Body Weight Difference,[3]; 32 mg/kg/dose,-5.1 Grams
same,Median % T/C,[3]; 32 mg/kg/dose,Toxic
same,60-day (long term) survivors,"[3]; L1210/cisplatin, tolerated doses",only one long term survivor
same,Body Weight Difference,[4]; 5 mg/kg/inj IV,-3.3 Grams
same,Median % T/C,[4]; 5 mg/kg/inj IV,133%
same,Median Survival Time,[4]; 5 mg/kg/inj IV,13.7 days
same,Optimal Dose,[4],5.0 mg/kg/inj
same,Mouse Optimal Dose (highest tolerated dose in at least 2 of 3 experiments),[5],8 mg/kg
